Read-outs that look alike come from different tables or passages of the source.
How the values were obtained:
CDK4/cyclin D3 = target: T1, CDK4/cyclin D3 (Homo sapiens, UniProt P11802); assay: Human CDK4/cyclin D3 inhibitory activity (QS S Assist CDK4/Cyclin D3_FP Kit, IMAP fluorescence polarization); assay type: biochemical
T1 construct: purchased Carna Biosciences, Inc. QS S Assist CDK4/Cyclin D3_FP Kit
Outline: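 Percent inhibition, relative to DMSO with and without enzyme, was curve-fitted to give IC50 from polarization (ex 485, em 535 nm). The 45-min room-temperature reaction used 12.5-25 ng/well enzyme, kit ATP/substrate/metal mix, and HEPES pH 7.4 buffer with Tween20 and DTT, followed by 30-min IMAP binding in the dark.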

CDK2/cyclin A2 = target: T2, CDK2/cyclin A2 (Homo sapiens, UniProt P24941); assay: Human CDK2/cyclin A2 inhibitory activity (QS S Assist CDK2/Cyclin A2_FP Kit, IMAP fluorescence polarization); assay type: biochemical
T2 construct: purchased Carna Biosciences, Inc. QS S Assist CDK2/Cyclin A2_FP Kit
Outline: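 Kinase activity read as fluorescence polarization (485/535 nm) after phosphorylated fluorescent substrate binds IMAP reagent (30 min, RT, dark). Enzyme (2.5 ng/well) reacted 60 min at RT with ATP/substrate/metal in HEPES pH 7.4 buffer with Tween 20 and DTT; no-enzyme wells define 0% activity; IC50 by curve fit.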

[1] = Human CDK4/cyclin D3 inhibitory activity, read-out: CDK4 Activity symbol
[2] = Human CDK2/cyclin A2 inhibitory activity, read-out: CDK2 Activity symbol
[3] = 50% inhibitory concentration against CDK4/cyclin D3, given as class symbol
[4] = 50% inhibitory concentration against CDK2/cyclin A2, given as class symbol

T1 sequence (P11802 whole entry): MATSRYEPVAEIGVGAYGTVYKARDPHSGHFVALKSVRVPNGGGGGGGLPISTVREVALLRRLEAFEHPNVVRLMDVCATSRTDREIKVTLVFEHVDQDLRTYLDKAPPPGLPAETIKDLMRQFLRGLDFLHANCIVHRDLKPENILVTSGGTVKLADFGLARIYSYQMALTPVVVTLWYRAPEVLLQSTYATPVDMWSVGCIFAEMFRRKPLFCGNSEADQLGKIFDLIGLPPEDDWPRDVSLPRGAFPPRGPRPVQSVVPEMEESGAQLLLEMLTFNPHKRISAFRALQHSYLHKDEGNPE
T1 sequence (P30281 whole entry partner): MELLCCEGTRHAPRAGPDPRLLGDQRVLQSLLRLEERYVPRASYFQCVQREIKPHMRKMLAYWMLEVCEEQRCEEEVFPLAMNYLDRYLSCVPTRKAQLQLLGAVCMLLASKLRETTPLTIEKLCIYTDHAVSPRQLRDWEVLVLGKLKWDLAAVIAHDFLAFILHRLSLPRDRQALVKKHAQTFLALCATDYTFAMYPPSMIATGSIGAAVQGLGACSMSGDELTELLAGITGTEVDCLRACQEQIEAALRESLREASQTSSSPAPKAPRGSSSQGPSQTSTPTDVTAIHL

Compound | IC50 (CDK4/cyclin D3; [1]) [µM] | IC50 (CDK2/cyclin A2; [2]) [µM] | IC50 (CDK4/cyclin D3; [3]) [µM] | IC50 (CDK2/cyclin A2; [4]) [µM]
CC(O)c1cc2cnc(Nc3ccc(N4CCNCC4)cn3)nc2c(Nc2cn[nH]c2)n1 (centres unmarked) [Compound 32] | < 0.01 | ≥ 0.1 |  | 
COCC(C)(C)Nc1nc([C@@H](C)O)cc2cnc(Nc3ccc(CCCN4CCOCC4=O)cn3)nc12 [Compound 193] | 0.01 to 0.1 | ≥ 0.1 |  | 
CC(C)Nc1nc([C@@H](C)O)cc2cnc(Nc3ccc(CN4CCN(CC#N)CC4)cn3)nc12 [Compound 1015] |  |  | < 0.01 | ≥ 0.1
CCCCNc1nc([C@@H](C)O)cc2cnc(Nc3ccc(N4CCNCC4)cn3)nc12 [Compound 922] |  |  | < 0.01 | ≥ 0.1
C[C@@H](O)c1cc2cnc(Nc3ccc(CN4CCN(CCO)CC4)cn3)nc2c(NCC(C)(F)F)n1 [Compound 1215] |  |  | < 0.01 | ≥ 0.1
CC(C)Nc1nc(C(F)F)c(F)c2cnc(Nc3ccc(N4CCNCC4)cn3)nc12 [Compound 55] | < 0.01 | 0.01 to 0.1 |  | 
CNCCN1CCc2nc(Nc3ncc4cc([C@@H](C)O)nc(NC(C)C)c4n3)ccc2C1 [Compound 930] |  |  | < 0.01 | ≥ 0.1
CC(C)Nc1nc([C@@H](C)O)cc2cnc(Nc3ccc(N4CCC(N)CC4=O)cn3)nc12 (some centres unmarked) [Compound 605] | < 0.01 | 0.01 to 0.1 |  | 
COCC(C)(C)Nc1nc([C@@H](C)O)cc2cnc(Nc3ccc(CN4CCNC(=O)C4)cn3)nc12 [Compound 182] | 0.01 to 0.1 | ≥ 0.1 |  | 
CC(C)Nc1nc(C(C)O)cc2cnc(Nc3ccc(CN4CCNCC4)cn3)nc12 (centres unmarked) [Compound 79] | < 0.01 | ≥ 0.1 |  | 
CC(C)Nc1nc(C(C)O)cc2cnc(Nc3ccc(N4CCNCC4C(F)(F)F)cn3)nc12 (single isomer, unassigned) [Compound 776] |  |  | < 0.01 | ≥ 0.1
CC(C)Nc1nc(C2CCCO2)cc2cnc(Nc3ccc(N4CCNCC4)cn3)nc12 (centres unmarked) [Compound 993] |  |  | < 0.01 | ≥ 0.1
CO[C@H](C)c1cc2cnc(Nc3ccc(N4CCN(C(=O)OC(C)C)CC4)nn3)nc2c(NC(C)C)n1 [Compound 748] |  |  | 0.01 to 0.1 | ≥ 0.1
CC(C)Nc1nc(C2CCOC2)cc2cnc(Nc3ccc4c(n3)CCN(C(=O)CO)C4)nc12 (centres unmarked) [Compound 1231] |  |  | < 0.01 | ≥ 0.1
CCCNc1nc(C(F)F)cc2cnc(Nc3ccc(CN4CCC(C(=O)O)CC4)cn3)nc12 [Compound 1097] |  |  | 0.01 to 0.1 | ≥ 0.1
CNCC(C)(C)c1ccc(Nc2ncc3cc([C@@H](C)O)nc(NC(C)(C)COC)c3n2)nc1 [Compound 264] | < 0.01 | ≥ 0.1 |  | 
CO[C@H](C)c1cc2cnc(Nc3ccc(N4CC[C@@H](N)[C@@H](F)C4)cn3)nc2c(NC(C)C)n1 [Compound 466] | < 0.01 | ≥ 0.1 |  | 
CC(C)Nc1nc(C(F)F)cc2cnc(Nc3ccc(N4CCCC(O)C4)nn3)nc12 (centres unmarked) [Compound 226] | < 0.01 | 0.01 to 0.1 |  | 
CC(C)Nc1nc([C@@H](C)O)cc2cnc(Nc3ccc(CC(=O)N4CCN(C(C)C)CC4)cn3)nc12 [Compound 615] | < 0.01 | ≥ 0.1 |  | 
C[C@H]1CC[C@H](Nc2nc(C(F)F)cc3cnc(Nc4ccc(CN5CCC(C(=O)O)CC5)cn4)nc23)CC1 [Compound 839] |  |  | < 0.01 | ≥ 0.1

Compound | IC50 (CDK4/cyclin D3; [1]) [µM] | IC50 (CDK2/cyclin A2; [2]) [µM] | IC50 (CDK4/cyclin D3; [3]) [µM] | IC50 (CDK2/cyclin A2; [4]) [µM]
CC(C)Nc1nc(C(F)F)cc2cnc(Nc3ccc(CCCNS(C)(=O)=O)cn3)nc12 [Compound 153] | < 0.01 | 0.01 to 0.1 |  | 
CC(C)Nc1nc(C2CCCO2)cc2cnc(Nc3ccc(N4CCNCC4)cn3)nc12 (centres unmarked) [Compound 992] |  |  | 0.01 to 0.1 | ≥ 0.1
CC(C)Nc1nc([C@@H](C)O)cc2cnc(Nc3ccc(N4CCC(N(C)C)C4)nn3)nc12 (some centres unmarked) [Compound 1219] |  |  | < 0.01 | ≥ 0.1
CC(O)c1cc2cnc(Nc3ccc(N4CCNCC4)cn3)nc2c(NCC(F)(F)F)n1 (centres unmarked) [Compound 40] | < 0.01 | ≥ 0.1 |  | 
COCCNc1nc(C(F)F)cc2cnc(Nc3ccc(N4CCNCC4)cn3)nc12 [Compound 15] | < 0.01 | ≥ 0.1 |  | 
c1cc(Nc2ncc3cc(C4CCOC4)nc(N[C@H]4CCCOC4)c3n2)ncc1CN1CCNCC1 (some centres unmarked) [Compound 882] |  |  | < 0.01 | ≥ 0.1
C[C@@H](O)c1cc2cnc(Nc3ccc(O[C@H]4CC[C@@H](N(C)C)CC4)cn3)nc2c(N[C@H]2CCCOC2)n1 [Compound 787] |  |  | < 0.01 | ≥ 0.1
CCCNc1nc([C@@H](C)OC)cc2cnc(Nc3ccc4c(n3)CCN(C(=O)CO)C4)nc12 [Compound 1111] |  |  | 0.01 to 0.1 | ≥ 0.1
CCCCNc1nc(C(C)=O)cc2cnc(Nc3ccc(CN4CCN(CCO)CC4)cn3)nc12 [Compound 975] |  |  | 0.01 to 0.1 | ≥ 0.1
C[C@@H](O)c1nc(N[C@H]2CCCOC2)c2nc(Nc3ccc(OCCN(C)C)cn3)ncc2c1Cl [Compound 719] |  |  | < 0.01 | ≥ 0.1
CC(=O)c1cc2cnc(Nc3ccc(N4CCNCC4)cn3)nc2c(N(C)C(C)C)n1 [Compound 91] | < 0.01 | ≥ 0.1 |  | 
CC(C)Nc1nc(C(F)F)cc2cnc(Nc3ccc(N4CCN(C)C(=O)C4)cn3)nc12 [Compound 84] | < 0.01 | 0.01 to 0.1 |  | 
CC(C)Nc1nc(C(=O)N(C)C)cc2cnc(Nc3ccc(N4CCNCC4)cn3)nc12 [Compound 34] | 0.01 to 0.1 | ≥ 0.1 |  | 
CO[C@H](C)c1cc2cnc(Nc3ccc(C4CCCNC4)cn3)nc2c(NC(C)C)n1 (some centres unmarked) [Compound 332] | < 0.01 | ≥ 0.1 |  | 
CO[C@H](C)c1cc2cnc(Nc3ccc(N4CC[C@H](O)CC4=O)cn3)nc2c(NC(C)C)n1 [Compound 267] | < 0.01 | ≥ 0.1 |  | 
Cc1nc(Nc2ncc3c(Cl)c(C(F)F)nc(NC(C)C)c3n2)ccc1N1CCNCC1=O [Compound 851] |  |  | 0.01 to 0.1 | ≥ 0.1
C[C@@H](O)c1cc2cnc(Nc3ccc(N4CCNCC4=O)cn3)nc2c(N[C@@H]2CCOC2)n1 [Compound 348] | < 0.01 | ≥ 0.1 |  | 
CCCNc1nc([C@@H](C)O)cc2cnc(Nc3ccc(CN4CCC[C@@H](O)C4)cn3)nc12 [Compound 1195] |  |  | < 0.01 | ≥ 0.1
CC(C)Nc1nc([C@@H](C)O)cc2cnc(Nc3ccc(CN4CCN(C5COC5)CC4)cn3)nc12 [Compound 683] |  |  | < 0.01 | ≥ 0.1
COCC(C)(C)Nc1nc([C@@H](C)O)cc2cnc(Nc3ccc(N4CCOCC4)nn3)nc12 [Compound 216] | 0.01 to 0.1 | ≥ 0.1 |  | 

Compound | IC50 (CDK4/cyclin D3; [1]) [µM] | IC50 (CDK2/cyclin A2; [2]) [µM] | IC50 (CDK4/cyclin D3; [3]) [µM] | IC50 (CDK2/cyclin A2; [4]) [µM]
C[C@@H](O)c1cc2cnc(Nc3ccc(N4CCNCC4)cn3)nc2c(N[C@@H]2CCOC2)n1 [Compound 995] |  |  | < 0.01 | ≥ 0.1
CC(C)Nc1nc(C(F)F)cc2cnc(Nc3ccc(CN4CCOCCC4=O)cn3)nc12 [Compound 173] | < 0.01 | 0.01 to 0.1 |  | 
CC(C)Nc1nc([C@@H](C)O)cc2cnc(Nc3ccc(OCCN4CCNCC4=O)cn3)nc12 [Compound 550] | < 0.01 | ≥ 0.1 |  | 
CC(C)Nc1nc(C(F)F)cc2cnc(Nc3ccc(CN4CCCC(O)C4)cn3)nc12 (centres unmarked) [Compound 128] | < 0.01 | 0.01 to 0.1 |  | 
CC1(c2cc3cnc(Nc4ccc5c(n4)CCNC5)nc3c(N[C@H]3CCCOC3)n2)COC1 [Compound 888] |  |  | < 0.01 | ≥ 0.1
C[C@@H](O)c1cc2cnc(Nc3ccc4c(n3)CCN(C(=O)OCCN(C)C)C4)nc2c(N[C@H]2CCCOC2)n1 [Compound 1143] |  |  | < 0.01 | ≥ 0.1
CC(C)Nc1nc([C@@H](C)O)cc2cnc(Nc3ccc(N4CCN(CCO)CC4=O)cn3)nc12 [Compound 597] | < 0.01 | ≥ 0.1 |  | 
CC(C)Nc1nc([C@@H](C)O)cc2cnc(Nc3ccc(CN4CCN(C[C@@H](C)O)CC4)cn3)nc12 [Compound 675] |  |  | < 0.01 | ≥ 0.1
CC(C)Nc1nc(C(C)O)cc2cnc(Nc3ccc(OC4CNCCC4F)cn3)nc12 (centres unmarked) [Compound 864] |  |  | < 0.01 | ≥ 0.1
CC(C)Nc1nc([C@@H](C)O)cc2cnc(Nc3ccc(N4CCN(C(C)C)CC4=O)cn3)nc12 [Compound 584] | < 0.01 | ≥ 0.1 |  | 
Cc1nc(Nc2ncc3c(Cl)c([C@@H](C)O)nc(NC(C)C)c3n2)ccc1N1CCNCC1=O [Compound 815] |  |  | < 0.01 | ≥ 0.1
CC(C)Nc1nc([C@@H](C)O)c(Cl)c2cnc(Nc3ccc(CN4CCNCC4)cn3)nc12 [Compound 238] | < 0.01 | ≥ 0.1 |  | 
CNCCOc1ccc(Nc2ncc3c(Cl)c([C@@H](C)O)nc(N[C@H]4CCCOC4)c3n2)nc1 [Compound 755] |  |  | < 0.01 | ≥ 0.1
CC(C)Nc1nc([C@@H](C)O)c(F)c2cnc(Nc3ccc(N4CCNCC4)cn3)nc12 [Compound 64] | < 0.01 | ≥ 0.1 |  | 
CC(O)CN1CCN(c2ccc(Nc3ncc4cc([C@@H](C)O)nc(NC(C)C)c4n3)nc2)C(=O)C1 (some centres unmarked) [Compound 636] |  |  | < 0.01 | ≥ 0.1
CC(C)Nc1nc([C@@H](C)O)cc2cnc(Nc3ccc(N4CC(C)(CO)C4)nn3)nc12 [Compound 668] |  |  | < 0.01 | ≥ 0.1
CC(C)Nc1nc(C(C)O)cc2cnc(Nc3ccc(N4CCCC(O)C4)nn3)nc12 (single isomer, unassigned) [Compound 581] | < 0.01 | ≥ 0.1 |  | 
CC(C)Nc1nc(C(F)F)cc2cnc(Nc3ccc(CN(C[C@@H]4CCCO4)S(C)(=O)=O)cn3)nc12 [Compound 149] | 0.01 to 0.1 | ≥ 0.1 |  | 

Reference: patent US10124004B2, “Pyrido[3,4-d]pyrimidine derivative and pharmaceutically acceptable salt thereof” (Teijin Pharma Limited, priority 2015, dated 2018)
